Source: patent US11987648B2, “Cyclohexapeptides as selective somatostatin SST5 receptor agonists” (Heptares Therapeutics Limited, priority 2018, dated 2024)
*1 amine or outer side, *2 acyl side, *3 side chain or, on linkers, in order; H or OH if unused. Where a SMILES comes first, the peptide text is derived from it. Side-chain parts run from the residue outwards. [ ]: non-standard residue; d: D form. The star is where a group is joined. Ethylenediamine = C(CN[*:2])N[*:1]; Hyp = O=C(O)[C@@H]1C[C@@H](O)CN1; Phg = N[C@H](C(=O)O)c1ccccc1; CO = O=C([*:1])[*:2]; Bn = c1ccc(C*)cc1

What was measured:
[1] = Phase II trial, hepatocellular carcinoma; cited from earlier work
[2] = biological target: SST2 (Homo sapiens, UniProt P30874); assay: Hit Hunter cAMP XS+ assay, SST2 activation via Gi (reduction of forskolin-stimulated cAMP); assay type: cell-based
How it was run: (§1)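 Cells (10,000/well) incubated 30 min at 37 °C with compound under EC80 forskolin ([…] for SST2, 15 μM for SST5). cAMP reduction was detected by enzyme-fragment complementation chemiluminescence after 60 min and 180 min room-temperature reagent steps. Potency and efficacy were both measured.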

[3] = biological target: SST5 (Homo sapiens, UniProt P35346); assay: Hit Hunter cAMP XS+ assay, SST5 activation via Gi (reduction of forskolin-stimulated cAMP); assay type: cell-based; details: for SST5/2 Selectivity: selectivity for SST5 over SST2
How it was run: as §1

[4] = Phase I trial, pancreatic cancer, combination treatment with gemcitabine; cited from earlier work
[5] = efficacy normalised to somatostatin 28 (basal 0%, 100% = signal with 50 nM somatostatin 28)

Sequence of SST2 (P30874 whole entry, the tested form may be a part): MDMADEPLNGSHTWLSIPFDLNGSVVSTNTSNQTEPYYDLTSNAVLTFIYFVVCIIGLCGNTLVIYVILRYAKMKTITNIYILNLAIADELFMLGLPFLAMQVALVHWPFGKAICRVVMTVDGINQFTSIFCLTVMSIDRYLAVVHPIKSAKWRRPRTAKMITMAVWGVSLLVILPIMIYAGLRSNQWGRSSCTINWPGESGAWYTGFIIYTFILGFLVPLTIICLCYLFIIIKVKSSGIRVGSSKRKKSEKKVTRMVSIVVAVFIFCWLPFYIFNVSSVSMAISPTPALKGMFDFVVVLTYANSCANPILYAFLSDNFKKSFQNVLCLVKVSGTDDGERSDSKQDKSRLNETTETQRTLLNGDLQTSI
Sequence of SST5 (P35346 whole entry): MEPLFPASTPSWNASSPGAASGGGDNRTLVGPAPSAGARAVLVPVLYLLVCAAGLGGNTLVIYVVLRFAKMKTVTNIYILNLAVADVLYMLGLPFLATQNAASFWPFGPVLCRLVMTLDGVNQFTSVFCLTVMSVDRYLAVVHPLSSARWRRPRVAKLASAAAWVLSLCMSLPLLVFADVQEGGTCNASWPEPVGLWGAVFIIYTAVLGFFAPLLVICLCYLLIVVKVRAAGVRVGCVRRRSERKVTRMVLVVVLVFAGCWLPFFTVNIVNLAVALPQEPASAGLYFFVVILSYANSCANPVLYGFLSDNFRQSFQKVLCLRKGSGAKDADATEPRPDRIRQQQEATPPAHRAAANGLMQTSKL

Row | Compound | patients with limitation of disease progression [1] | EC50 [2] | Emax ([2]; read-out: SST2 (EMax)) | EC50 [3] | Emax ([3]; read-out: SST5 (EMax)) | SST5/2 Selectivity [3] | disease control rate [4] | SST2 (EMax) [2, 5] | SST5 (EMax) [3, 5]
1 | NCCCC[C@@H]1NC(=O)[C@@H](Cc2c[nH]c3ccccc23)NC(=O)[C@H](c2ccccc2)NC(=O)[C@@H]2C[C@@H](OC(=O)NCCN)CN2C(=O)[C@H](Cc2ccccc2)NC(=O)[C@H](Cc2ccc(OCc3ccccc3)cc2)NC1=O [pasireotide, reference compound] (cyclo([Hyp]([CO-Ethylenediamine])[Phg][dW]KY(Bn)F)) | 45% | 1000 pM | 100% | 251 pM | 102% | 3.8 | 68% |  | 
2 | somatostatin 28 [reference compound] |  |  |  |  |  | 4.6 |  | 100.4% | 101.0%
